# According to US9737525B2, “Small molecule activators of NRF2 pathway” (The General Hospital Corporation, priority 2013, dated 2017):
# pKd: −log10 of the molar value. Entries after “also recorded” stand apart in the source; their conditions may differ. Where two headings read alike, the source gives them in different places.
# Key:
# NQO1 = assay: Quantitative NQO1 inducer bioassay in Hepa1c1c7 cells; assay type: cell-based, murine; conditions: for Effect of GSH pre-incubation on NQO1 inducer potency: 1 mM GSH at 37° C. for 30 min before cell treatment; for CD value (Concentration which Doubles the specific activity of NQO1): Hepa1c1c7 cells; for CD value (Concentration which Doubles the specific activity of NQO1) / EC (2-fold NQO1 activity): 48 hr exposure; for EC (2-fold NQO1 activity): Mus musculus, Hepa-1c1c7, Table 3, Concentration which Doubles the specific activity of NQO1, read-out: NQD1 CD
# Experimental: Cells grown in 96-well plates were exposed to serial dilutions of each compound for 48 hr, and the NQO1 enzyme activity was determined in cell lysates. Results are shown as average values of 8 replicate wells. The standard deviation in each case was less than 5%.
# Next, using a quantitative NQO1 inducer bioassay in murine Hepa1c1c7 cells and the CD value (Concentration which Doubles the specific activity of NQO1) as a measure of potency (see Table 2), the activities of the MIND4 analogs were tested and ranked.
# Inducer potency was quantified by use of the NQO1 bioassay in Hepa1c1c7 cells as described [Prochaska, 1988]. To examine the effect of GSH on inducer potency, compounds were incubated in cell culture medium containing 1 mM GSH at 37° C. for 30 min before cell treatment.
# [1] = molecular target: recombinant human KEAP1 protein (Homo sapiens (Human), UniProt Q14145); assay: SPR (Surface Plasmon Resonance) Biacore binding assay
# Chain of recombinant human KEAP1 protein (Q14145 whole entry): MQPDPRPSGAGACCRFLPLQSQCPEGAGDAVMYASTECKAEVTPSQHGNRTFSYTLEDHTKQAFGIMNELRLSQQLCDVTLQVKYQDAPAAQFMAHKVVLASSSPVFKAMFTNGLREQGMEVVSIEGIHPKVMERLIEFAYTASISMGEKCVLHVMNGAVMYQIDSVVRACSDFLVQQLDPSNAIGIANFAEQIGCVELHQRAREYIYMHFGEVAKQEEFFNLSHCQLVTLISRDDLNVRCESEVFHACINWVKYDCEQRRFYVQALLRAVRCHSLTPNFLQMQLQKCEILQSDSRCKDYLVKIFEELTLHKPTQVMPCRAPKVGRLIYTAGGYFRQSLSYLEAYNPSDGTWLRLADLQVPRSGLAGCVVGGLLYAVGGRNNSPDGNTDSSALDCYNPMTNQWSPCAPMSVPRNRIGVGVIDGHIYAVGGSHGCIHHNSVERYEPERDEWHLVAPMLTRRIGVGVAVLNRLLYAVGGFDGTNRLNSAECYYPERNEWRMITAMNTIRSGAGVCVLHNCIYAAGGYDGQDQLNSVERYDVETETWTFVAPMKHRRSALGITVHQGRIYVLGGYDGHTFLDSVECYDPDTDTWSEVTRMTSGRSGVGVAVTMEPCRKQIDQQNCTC
# Experimental: Briefly, compound MIND4-17 and MIND4 binding to baculovirous expressed KEAP1 by Surface Plasmon Resonance (SPR) binding Biacore assay was performed by CRO Precision Antibody, Inc. Binding experiments were performed on Biacore T-200 at 25° C. using CM5 chip. Anti-GST tag antibody was immobilized by amine coupling. The ligand KEAP1 was captured until 800 RU was reached. Antigen was flowed over the chip at variable concentrations. Binding of analyte to the ligand was monitored in real time to obtain on (ka) and off (kd) rates. The equilibrium constant (KD) was calculated from the observed ka and kd. In pilot experiment the analytes MIND4 and MIND4-17 were flowed over the chip at 3 different concentrations as indicated and kinetic analysis was performed. Full kinetic analysis was performed for MIND4-17 using analyte concentrations of 140 μM (the saturating amount) and run at serial dilutions 70, 35, 17.5, 8.75, 4.375 and 0. Chi square (χ^2) analysis was carried out between the actual Sensorgram (colored line) and the sensorgram generated from the BIAnalysis software (black line) to determine the accuracy of the analysis. (χ^2) value within 2-1 is considered significant (accurate) and below 1 is highly significant (highly accurate). The flow rate used for capturing the ligand was […] and the flow rate for kinetics analysis was […]. The Biacore binding assay was performed using assay buffer: 10 mM HEPES buffer (pH 7.4), 150 mM NaCl, 3 mM EDTA, 0.005% P20 (polyoxyethylenesorbitan), 5% DMSO; regeneration buffer: 10 mM HEPES buffer (pH 7.4), 150 mM NaCl, 3 mM EDTA, 0.005% P20 (polyoxyethylenesorbitan), 5% DMSO; and conjugation buffer: 10 mM sodium acetate buffer (pH 4.5).
# [2] = test system: NRF2-responsive proteins NQO1 and GCLM; assay: Induction of NQO1 and GCLM proteins in differentiated ST14A cells (immunoblotting); assay type: cell-based, rat; conditions: differentiated HD mutant and wild type ST14A cells, 24 hours
# Experimental: (§1) To assess protein levels, cell extracts were prepared from cells washed with PBS and lysed with buffer containing 2% SDS, Complete EDTA-free Protease Inhibitor Cocktail (Roche) and 1 mM phenylmethylsulfonyl fluoride. To prepare brain extracts for analysis, frozen mouse cortical tissues were homogenized in PBS containing protease inhibitors with an Kontes Pellet Pestle (Kimble/Kontes). They were later sonicated and lysed overnight at 4° C. in 2× volume of lysis buffer containing 2% SDS and protease inhibitors. Protein concentrations in ST14A cell extracts and homogenized cortical tissues were evaluated using a BCA analysis kit and normalized. Samples were prepared in a SDS buffer containing DTT and separated on bis-acrylamide protein gels via electrophoresis and transferred onto a 0.2 μm PVDF membrane). Membranes were probed for NQO1 (Sigma N5288, 1:1,000), GCLM, (Abcam ab126704, 1:800), SIRT2 (Sigma S8447, 1:2,500), histone H3 (Cell Signaling 4499, 1:2,000), acetylated H3 (K56) (Millipore 04-1135, 1:500), TNFα (Abcam ab1793, 1:1,500), GADPH (Millipore MAB374, 1:10,000), actin (Sigma A2066, 1:1250), α-tubulin (Sigma T6074, 1:20,000), and acetylated α-tubulin (Sigma T6793, 1:2,500) overnight in 5% milk in PBST at 4° C. on a rocker. Membranes were thrice washed in PBST for 15 min on a shaker and incubated in either an anti-rabbit-HRP (Bio-Rad 170-5046, 1:10,000) or anti-mouse-HRP (Sigma A3682, 1:4,000) secondary solution as appropriate in 3% milk in PBST for 1 hr at room temperature on a rocker. After four washes of 15 min in PBST on a shaker, blots were visualized using SuperSignal West Pico Chemiluminescent Substrate (Pierce 34080) or SuperSignal West Dura Extended Duration Substrate (Thermo 34075) and exposed on Scientific Imaging Film (Kodak 864 6770).
# Compound bioactivity was tested in the rat embryonic striatal cell lines ST14A, which stably express either a mutant expanded repeat (128Q) or wild type (26Q) 546 amino acid huntingtin (HTT) fragment (a generous gift of E. Cattaneo) (Ehrlich et al., 2001) ST14A cells were propagated at 33° C. in the presence of serum. To induce neuronal differentiation, cells were serum deprived and cultured at 37° C. in the presence of N2 supplement. Cells were treated with compounds concurrently with induction of neuronal differentiation for 24 hours, as described (Quinti et al., 2010).
# The NRF2 activation properties of further MIND4 structural analogs with variable potencies of SIRT2 inhibition were tested as described previously (see Table 1) Changes in expression of the canonical NRF2-responsive proteins NQO1 and GCLM, the transcription of which was induced by MIND4, was selected as a readout of pathway activation. Protein levels of NQO1 and GCLM were examined by immunoblotting in compound treated mutant HD and wild-type ST14A cells. […] This hypothesis was tested using a second panel of MIND4 analogs (see Table 3).
# [3] = test system: Nrf2-responsive proteins NQO1 and GCLM; assay: NRF2 responses in wild type and mutant SOD1 (G93A) primary astroglia; assay type: cell-based; conditions: wild type and mutant SOD1 (G93A) mouse primary astroglia
# Description: Primary glia was derived from wild type and mutant SOD1 (G93A) mice and treated with MIND4 and MIND4-17 at indicated doses. The expression NRF2 responsive NQO1 and GCLM proteins were detected by immunochemistry. […] Importantly, compounds had no effects on human mutant SOD1 transgene, expressing in mice from human promoter.
# [4] = test system: NRF2-target proteins NQO1 and GCLM; assay: NQO1 and GCLM proteins in wild type mouse cortical neurons (immunoblotting); assay type: cell-based; conditions: wild type mouse cortical neurons (6 DIV), 24 hr
# Experimental: as §1
# Dose-response induction of NRF2-target proteins NQO1 and GCLM in wild type mouse cortical neurons (6 DIV) treated with MIND4 and MIND4-17 for 24 hr was consistent with the compound effects on ARE-dependent gene transcription (FIG. 24E).
SMILES,Effect of GSH pre-incubation on NQO1 inducer potency (NQO1),CD value (Concentration which Doubles the specific activity of NQO1) (NQO1) [µM],EC (2-fold NQO1 activity) (NQO1) [µM],pKd [1],Mode of binding to KEAP1 [1],"pKd ([1]; 25° C., kinetic analysis)",Induction of NRF2-responsive proteins NQO1 and GCLM [2],Induction of Nrf2-responsive proteins NQO1 and GCLM [3],Expression of NQO1 protein [4],GCLM expression [4]
"O=[N+]([O-])c1ccc(Sc2nnc(COc3ccccc3)n2-c2ccccc2)c2ncccc12 [MIND4, 5-nitro-8-{[5-(phenoxymethyl)-4-phenyl-4H-1,2,4-triazol-3-yl]thio}quinoline]",much less pronounced effect,1.3,1.3,4.64,reversible binding,4.64,induced dose-dependent increases of NQO1 and GCLM protein,dose-dependent induction,increased the expression of NQO1 protein to the same extent,
O=[N+]([O-])c1ccc(Sc2nnc(COc3ccccc3)n2-c2ccccc2)nc1 [MIND4-17],drastically reduced the potency,0.15,0.15,4.78,reversible binding,4.78,potently induces NRF2-responses; also recorded: dose-dependent induction of NQO1 protein,dose-dependent induction,increased the expression of NQO1 protein to the same extent,more potent inducer of GCLM expression
